Legend:
Flt3 = biological target: T1, Flt3 (Homo sapiens, UniProt P36888); settings: at 1 nM; cited from earlier work
T1 sequence (P36888 27-993): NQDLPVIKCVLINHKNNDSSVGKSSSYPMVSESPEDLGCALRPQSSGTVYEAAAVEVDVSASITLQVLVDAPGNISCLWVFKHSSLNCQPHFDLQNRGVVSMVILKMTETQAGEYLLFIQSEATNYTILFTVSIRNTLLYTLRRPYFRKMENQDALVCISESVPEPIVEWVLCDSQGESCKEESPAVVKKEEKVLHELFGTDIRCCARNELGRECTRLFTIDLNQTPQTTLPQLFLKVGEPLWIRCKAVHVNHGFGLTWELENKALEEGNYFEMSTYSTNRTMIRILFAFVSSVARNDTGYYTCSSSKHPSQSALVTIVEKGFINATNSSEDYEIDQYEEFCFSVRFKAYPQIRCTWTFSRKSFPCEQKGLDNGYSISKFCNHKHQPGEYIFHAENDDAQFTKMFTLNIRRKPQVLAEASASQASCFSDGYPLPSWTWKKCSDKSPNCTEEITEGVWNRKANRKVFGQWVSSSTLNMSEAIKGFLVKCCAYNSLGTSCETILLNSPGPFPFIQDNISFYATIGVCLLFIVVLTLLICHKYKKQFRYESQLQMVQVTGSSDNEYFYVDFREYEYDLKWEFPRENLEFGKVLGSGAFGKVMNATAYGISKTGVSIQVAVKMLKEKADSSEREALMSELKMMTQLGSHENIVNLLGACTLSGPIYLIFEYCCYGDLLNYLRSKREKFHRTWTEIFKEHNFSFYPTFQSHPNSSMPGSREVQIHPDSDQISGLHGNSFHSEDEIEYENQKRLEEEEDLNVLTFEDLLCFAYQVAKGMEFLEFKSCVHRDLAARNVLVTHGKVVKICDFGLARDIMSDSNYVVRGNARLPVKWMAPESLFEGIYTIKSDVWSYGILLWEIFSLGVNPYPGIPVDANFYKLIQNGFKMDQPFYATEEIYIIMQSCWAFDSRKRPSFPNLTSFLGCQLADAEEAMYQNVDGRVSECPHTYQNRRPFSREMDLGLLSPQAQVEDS

LTK = LTK (Homo sapiens, UniProt P29376); settings: at 1 nM; cited from earlier work
ALK = ALK (Homo sapiens, UniProt Q9UM73); settings: at 1 nM; cited from earlier work
Axl = biological target: T2, Axl (Homo sapiens, UniProt P30530); settings: at 1 nM; cited from earlier work
T2 sequence (P30530 26-894): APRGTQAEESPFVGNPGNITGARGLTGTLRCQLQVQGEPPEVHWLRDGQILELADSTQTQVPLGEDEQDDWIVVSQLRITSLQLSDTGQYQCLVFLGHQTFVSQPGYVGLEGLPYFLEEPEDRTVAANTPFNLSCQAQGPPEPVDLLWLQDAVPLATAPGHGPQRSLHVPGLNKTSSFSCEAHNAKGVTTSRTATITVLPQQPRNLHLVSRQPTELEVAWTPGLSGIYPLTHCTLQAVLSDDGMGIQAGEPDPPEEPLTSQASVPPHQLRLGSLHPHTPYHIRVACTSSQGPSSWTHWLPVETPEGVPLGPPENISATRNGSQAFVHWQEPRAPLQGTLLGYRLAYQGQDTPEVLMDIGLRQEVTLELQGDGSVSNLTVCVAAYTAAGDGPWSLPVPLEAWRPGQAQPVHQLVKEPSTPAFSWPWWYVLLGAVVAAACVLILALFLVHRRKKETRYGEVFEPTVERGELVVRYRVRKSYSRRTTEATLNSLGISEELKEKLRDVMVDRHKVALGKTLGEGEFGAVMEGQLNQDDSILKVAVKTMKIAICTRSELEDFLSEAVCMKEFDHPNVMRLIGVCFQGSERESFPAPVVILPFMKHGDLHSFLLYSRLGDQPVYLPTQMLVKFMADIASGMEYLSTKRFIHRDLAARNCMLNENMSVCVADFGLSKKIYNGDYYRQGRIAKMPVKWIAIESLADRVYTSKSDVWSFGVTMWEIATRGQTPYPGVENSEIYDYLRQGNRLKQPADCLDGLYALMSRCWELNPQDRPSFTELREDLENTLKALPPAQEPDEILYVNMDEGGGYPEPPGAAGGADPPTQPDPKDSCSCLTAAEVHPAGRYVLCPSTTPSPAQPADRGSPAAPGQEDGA

[1] = test system: MEL1 INS GFP/W hESC spheres; assay: hESC suspension differentiation, qPCR of NGN3 and NKX2.2 at day 8; format: cell-based, human; settings: compared to RCN condition / during RCN or R treatment
Procedure: FIGS. 16A-16D. Published protocols result in precocious endocrine differentiation by NEUROG3 activation. FIGS. 16A-C: Analysis of key pancreatic progenitor markers in clusters differentiated as outlined in FIG. 15A. R=Retinoic acid, C=Cyclopamine, N=Noggin, E=Epidermal growth factor, K=Keratinocyte growth factor, T=TBP, and A=ALK inhibitor. Data shown are representative of two independent experiments. FIG. 16A: PDX1, INS, GCG, NEUROG3, and NKX6.1 protein expression was assessed by whole mount staining of differentiated clusters at indicated time points. Note precocious expression of the endocrine marker NEUROG3 in the absence of NKX6.1 protein at days 6-9. FIGS. 16B and 16C: Flow cytometric quantification of PDX1^+ (orange gate), PDX1^+/NKX6.1^+ (blue gate), INS^+/NKX6.1^+ (green gate), and INS^+/NKX6.1^− (red gate) cells at indicated time points. […]
Total RNA was isolated with TRIZOL (Sigma) or micro/mini RNAeasy kit (Qiagen) and reverse transcribed using the iScript cDNA Kit (Bio-Rad) according to manufacturer's instructions. qPCR analysis was performed on an ABI 7900 HT Fast Real-Time PCR System (Applied Biosystems) and CFX Connect Real Time System (Biorad) using standard protocols. […] P-values were calculated using a two-tailed student's t-test. […]

[2] = test system: pancreatic endodermal progenitor cells (cPE cells); assay: Maturation of cPE cells into C-peptide positive cells, chemical screen; settings: added individually to basal pancreatic differentiation media
[3] = test system: pancreatic endodermal progenitor (cPE) cells; assay: Protocol 2 maturation of cPE cells into cPB cells (INSULIN mRNA, C-peptide cells)
[4] = test system: MEL1 INS GFP/W hESC spheres; assay: hESC suspension differentiation, flow cytometry of PDX1 and NKX6.1; format: cell-based, human; settings: alone, conditions 2 and 3; day 9.5
From the text: Treatments consisted of combinations of Cyclopamine (C), Noggin (N), and retinoic acid (R) during days 6-8, followed by subdivision of each condition into three treatment groups during day 9-9.5. Group 1) continuation of day 6-8 treatment; Group 2) treatment with EGF and KGF (EK); Group 3) treatment with EGF, KGF, and Noggin (EKN). […] Data shown are representatives of results obtained in two independent experiments. […] FIG. 17B: Quantification of PDX1 (orange gate) and NKX6.1 (blue gate) protein expressing cells in individual conditions after 9.5 days of differentiation.
Suspension-based differentiations were carried out as follows. Briefly, confluent cultures were dissociated into single cell suspension by incubation with TrypLE (Gibco). […] To induce definitive endoderm differentiation, aggregates were collected 24 hours later in a 50 ml falcon tube, allowed to settle by gravity, washed once with PBS and re-suspended in d1 media (RPMI (Gibco) containing 0.2% FBS, 1:5000 ITS (Gibco), 100 ng/ml Activin A, and 50 ng/ml WNT3a (R&D systems)). Clusters from 3 wells were combined into 2 wells at this point and distributed into fresh low-attachment plates in 5.5 ml d1 media. Media thereafter was changed daily, by removing either 4.5 ml media (at the end of d1) or 5.5 ml media the following days and adding back 5.5 ml fresh media until day 9. After day 9, only 5 ml of media was removed and added daily.
Briefly, spheres were collected and allowed to settle by gravity. Clusters were washed once in PBS and dissociated by gentle pipetting after 12-15 minutes incubation in Accumax (Innovative Cell Technologies). For sorting, cell suspensions were filtered and re-suspended in FACS buffer consisting of phosphate-buffered saline (PBS) (UCSF cell culture facility) containing 2 mM EDTA (Ambion) and 1% BSA (Sigma). Dead cells were excluded by DAPI (Sigma) staining Cell sorting was performed on a FACS Aria II (BD Bioscience). […]

[5] = test system: MEL1 INS GFP/W hESC spheres; assay: hESC suspension differentiation, NEUROG3 immunofluorescence; format: cell-based, human; settings: days 6-9.5
Procedure: Undifferentiated MEL1 INS^GFP/W reporter cells (Micallef et al, 2012) were maintained on mouse embryo fibroblast feeder layers (Millipore) in hESC media as described (Guo et al, 2013b). Suspension-based differentiations were carried out as follows. Briefly, confluent cultures were dissociated into single cell suspension by incubation with TrypLE (Gibco). Cells were counted and each well of 6-well low-adherence plates were seeded with 5.5×10^6 cells in 5.5 ml hES media supplemented with 10 ng/ml Activin A (R&D systems) and 10 ng/ml HeregulinB1 (Peprotech). Plates were placed on an orbital shaker at 100 rpm to induce sphere formation, as described (Schulz et al, 2012). To induce definitive endoderm differentiation, aggregates were collected 24 hours later in a 50 ml falcon tube, allowed to settle by gravity, washed once with PBS and re-suspended in d1 media (RPMI (Gibco) containing 0.2% FBS, 1:5000 ITS (Gibco), 100 ng/ml Activin A, and 50 ng/ml WNT3a (R&D systems)). Clusters from 3 wells were combined into 2 wells at this point and distributed into fresh low-attachment plates in 5.5 ml d1 media. Media thereafter was changed daily, by removing either 4.5 ml media (at the end of d1) or 5.5 ml media the following days and adding back 5.5 ml fresh media until day 9. After day 9, only 5 ml of media was removed and added daily. […]

Chain of LTK (P29376 17-864, species assumed): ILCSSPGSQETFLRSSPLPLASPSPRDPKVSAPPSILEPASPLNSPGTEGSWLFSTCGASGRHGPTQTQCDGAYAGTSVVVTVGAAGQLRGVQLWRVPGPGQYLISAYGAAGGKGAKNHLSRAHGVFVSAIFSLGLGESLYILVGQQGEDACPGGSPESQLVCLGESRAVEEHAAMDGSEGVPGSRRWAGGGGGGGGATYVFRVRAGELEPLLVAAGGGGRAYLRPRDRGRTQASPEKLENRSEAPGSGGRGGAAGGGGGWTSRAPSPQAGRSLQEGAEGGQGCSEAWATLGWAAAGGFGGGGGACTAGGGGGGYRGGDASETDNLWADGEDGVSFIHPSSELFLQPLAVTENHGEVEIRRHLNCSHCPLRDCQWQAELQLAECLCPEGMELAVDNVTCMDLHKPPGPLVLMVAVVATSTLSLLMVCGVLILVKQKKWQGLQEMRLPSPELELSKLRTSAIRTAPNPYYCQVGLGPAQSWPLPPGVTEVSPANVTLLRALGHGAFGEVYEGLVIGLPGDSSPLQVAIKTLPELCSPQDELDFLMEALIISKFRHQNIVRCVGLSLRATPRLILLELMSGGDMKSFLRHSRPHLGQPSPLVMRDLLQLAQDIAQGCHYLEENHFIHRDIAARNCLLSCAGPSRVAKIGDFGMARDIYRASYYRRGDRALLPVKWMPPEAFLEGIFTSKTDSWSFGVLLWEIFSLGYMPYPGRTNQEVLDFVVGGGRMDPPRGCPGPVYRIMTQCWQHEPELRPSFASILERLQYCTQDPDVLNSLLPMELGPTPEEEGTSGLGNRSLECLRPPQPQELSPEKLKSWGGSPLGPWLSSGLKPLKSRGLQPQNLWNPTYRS
Chain of ALK (Q9UM73 19-1620, species assumed): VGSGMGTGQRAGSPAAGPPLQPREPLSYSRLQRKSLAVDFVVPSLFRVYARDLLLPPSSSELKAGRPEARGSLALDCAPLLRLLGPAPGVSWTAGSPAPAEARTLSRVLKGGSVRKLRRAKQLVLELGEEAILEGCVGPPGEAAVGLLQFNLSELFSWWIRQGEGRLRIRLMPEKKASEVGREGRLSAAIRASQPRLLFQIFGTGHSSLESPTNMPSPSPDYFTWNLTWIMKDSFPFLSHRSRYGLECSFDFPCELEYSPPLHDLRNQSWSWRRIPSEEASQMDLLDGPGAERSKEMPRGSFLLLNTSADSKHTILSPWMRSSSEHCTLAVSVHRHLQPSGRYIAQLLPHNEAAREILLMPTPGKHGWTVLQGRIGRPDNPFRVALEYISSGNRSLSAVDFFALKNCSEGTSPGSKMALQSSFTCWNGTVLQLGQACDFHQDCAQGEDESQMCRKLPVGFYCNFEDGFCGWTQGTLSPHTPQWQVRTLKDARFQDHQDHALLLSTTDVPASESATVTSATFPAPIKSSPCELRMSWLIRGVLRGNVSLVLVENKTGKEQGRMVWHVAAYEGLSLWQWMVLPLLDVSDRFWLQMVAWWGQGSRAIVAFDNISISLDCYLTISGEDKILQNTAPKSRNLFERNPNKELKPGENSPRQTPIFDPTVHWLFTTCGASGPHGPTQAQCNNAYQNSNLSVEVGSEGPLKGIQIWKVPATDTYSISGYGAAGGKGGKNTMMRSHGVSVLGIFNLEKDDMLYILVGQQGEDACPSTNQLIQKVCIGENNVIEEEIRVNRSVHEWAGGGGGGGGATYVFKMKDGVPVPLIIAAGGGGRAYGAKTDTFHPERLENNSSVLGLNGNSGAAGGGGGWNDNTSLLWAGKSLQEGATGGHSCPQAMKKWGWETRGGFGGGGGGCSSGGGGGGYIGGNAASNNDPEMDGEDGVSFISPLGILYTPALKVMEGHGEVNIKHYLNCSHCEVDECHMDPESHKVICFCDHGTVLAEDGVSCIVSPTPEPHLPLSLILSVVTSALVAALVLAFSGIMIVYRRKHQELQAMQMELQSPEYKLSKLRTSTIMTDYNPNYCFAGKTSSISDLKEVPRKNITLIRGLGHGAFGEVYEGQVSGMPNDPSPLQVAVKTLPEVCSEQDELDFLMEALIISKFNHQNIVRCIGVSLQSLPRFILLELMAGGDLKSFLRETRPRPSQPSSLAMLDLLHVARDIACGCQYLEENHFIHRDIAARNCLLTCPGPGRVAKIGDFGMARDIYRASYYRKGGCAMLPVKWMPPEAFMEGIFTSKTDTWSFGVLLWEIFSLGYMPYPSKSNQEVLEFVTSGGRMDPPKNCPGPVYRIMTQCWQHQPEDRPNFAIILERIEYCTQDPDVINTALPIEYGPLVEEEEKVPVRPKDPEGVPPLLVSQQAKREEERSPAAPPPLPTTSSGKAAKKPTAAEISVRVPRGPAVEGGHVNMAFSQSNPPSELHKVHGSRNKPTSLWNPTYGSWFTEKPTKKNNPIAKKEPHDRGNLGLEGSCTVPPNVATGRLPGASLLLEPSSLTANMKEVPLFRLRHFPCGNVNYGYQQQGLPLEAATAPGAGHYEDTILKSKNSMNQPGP

Molecule: CCc1nc(C(N)=O)c(Nc2ccc(N3CCC(N4CCN(C)CC4)CC3)c(OC)c2)nc1NC1CCOCC1 [ASP2215]
- inhibition of FLT3 (Flt3): over 50%
- inhibition of LTK (LTK): over 50%
- inhibition of ALK (ALK): over 50%
- inhibition of AXL (Axl): over 50%

Molecule: O=C1O[C@H]([C@@H](O)CO)C(O)=C1O [Vitamin C]
- NEUROG3 (NGN3) and NKX2.2 mRNA transcripts [1]: did not significantly lower
- percentage of C-peptide positive cells, individual supplementation [2]: effective in increasing
- number of C-peptide positive cells co-expressing PDX1 and NKX6.1 [3]: increased
- expression of the INSULIN gene (mRNA) ([3]; day 21, compared to DMSO controls): promoted expression

B1: Noggin: the BMP inhibitor Noggin (protein, UniProt Q13253 28-232, looked up)
Noggin: QHYLHIRPAPSDNLPLVDLIEHPDPIFDPKEKDLNETLLRSLLGGHYDPGFMATSPPEDRPGGGGGAAGGAEDLAELDQLLRQRPSGAMPSEIKGLEFSEGLAQGKKQRLSKKLRRKLQMWLWSQTFCPVLYAWNDLGSRFWPRYVKVGSCFSKRSCSVPEGMVCKPSKSVHLTVLRWRCQRRGGQRCGWIPIQYPIISECKCSC
- generation of PDX1+ cells over base media alone [4]: did not result in enhanced generation
- NEUROG3 expression (endocrine differentiation) [5]: noted only when spheres had been exposed to N
